Results as given in patent US4966900A, “Cephalosporin β-lactam compound and medicinal composition” (priority 1986, dated 1990).
Where a name gives a salt, the structure may show the parent alone.

What was measured:
Experiment in all cases: MIC
E. cloacae 5D63-2 = settings: Enterobacter cloacae, 5D632
P. aeruginosa 4au542 = settings: Pseudomonas aeruginosa, 4AU542, P. aeruginosa 4au542; Table 5
E. coli GN5482 = settings: Escherichia coli, GN5482, E. coli GN5482; Table 5
C. freundii GN7391 = settings: Citrobacter freundii, GN7391, C. freundii GN7391
C. freundii 5D60-1 = settings: Citrobacter freundii, 5D601
K. pneumoniae 4at521 = settings: Klebsiella pneumoniae, 4AT521
C. freundii 1U589 = settings: Citrobacter freundii, 1U589
P. cepacia OF189 = settings: Burkholderia cepacia, OF189, P. cepacia OF189; Table 5
S. aureus Smith = settings: Staphylococcus aureus, Table 5
C. freundii 1R524 = settings: Citrobacter freundii, 1R524
P. maltophilia OF247 = settings: Stenotrophomonas maltophilia, Table 5
E. coli ML4707 = settings: Escherichia coli, ML4707, E. coli ML4707; Table 5
P. aeruginosa GN10362 = settings: Pseudomonas aeruginosa, GN10362
P. aeruginosa 5D58-1 = settings: Pseudomonas aeruginosa, 5D581, P. aeruginosa 5D58-1; Table 5
C. freundii 1R527 = settings: Citrobacter freundii, 1R527
E. cloacae 1V25 = settings: Enterobacter cloacae
C. freundii 1R526 = settings: Citrobacter freundii, 1R526
C. freundii 1R523 = settings: Citrobacter freundii, 1R523
E. cloacae 908RN = settings: Enterobacter cloacae
E. colacae GN7471 = settings: Table 5
E. cloacae 5D52-2 = settings: Enterobacter cloacae, 5D522
P. vulgaris GN7919 = settings: Proteus vulgaris, GN7919
S. aureus IAA498 = format: cell-based; settings: Staphylococcus aureus, Table 5
Method: (§1) The minimum inhibition concentrations (MIC) of the compounds obtained in the respective examples described above were measured according to the standard method of Japanese Chemotherapy Association.

E. cloacae 1Y247 = format: cell-based; settings: Enterobacter cloacae, Table 6, read-out: MIC
Method: as §1

C. freundii 1U692 = settings: Citrobacter freundii, 1U692
S. marcescens GN10857 = settings: Serratia marcescens, GN10857, S. marcescens GN10857; Table 5

Structure (SMILES)	MIC (E. cloacae 5D63-2)	MIC (P. aeruginosa 4au542)	MIC (E. coli GN5482)	MIC (C. freundii GN7391; Table 5)	MIC (C. freundii GN7391; Table 6)	MIC (C. freundii 5D60-1)	MIC (K. pneumoniae 4at521)	MIC (C. freundii 1U589)	MIC (P. cepacia OF189)	MIC (S. aureus Smith)	MIC (C. freundii 1R524)	MIC (P. maltophilia OF247)	MIC (E. coli ML4707)	MIC (P. aeruginosa GN10362)	MIC (P. aeruginosa 5D58-1)	MIC (C. freundii 1R527)	MIC (E. cloacae 1V25)	MIC (C. freundii 1R526)	MIC (C. freundii 1R523)	MIC (E. cloacae 908RN; E. cloacae 908RN, Table 6)	further results
Cc1nc2nc(C(=O)O)nn2c(SCC2=C(C(=O)O)N3C(=O)C(NC(=O)C(=NOC(C)(C)C(=O)NNC(=O)c4ccc(O)c(O)c4)c4csc(N)n4)C3SC2)c1C (centres unmarked) [Example 41, 7-{2-[2-Amino-1,3-thiazol 4-yl]-2-[1-(3-(3,4-dihydroxybenzoyl)carbazoyl)-1-methylethoxyimino]acetamide}-3-[(2-carboxy-5,6-dimethyl-s-triazolo[1,5-a]pyrimidin-7-yl)-thiomethyl]-3-cephem-4-carboxylic acid.hydrochloride]	0.1 µg/mL	0.2 µg/mL	< 0.006 µg/mL	0.39 µg/mL	0.39 µg/mL	0.1 µg/mL	< 0.006 µg/mL	0.05 µg/mL	< 0.006 µg/mL	25 µg/mL	0.006 µg/mL	0.1 µg/mL	< 0.006 µg/mL	0.1 µg/mL	0.39 µg/mL	0.012 µg/mL	1.56 µg/mL	0.025 µg/mL	0.025 µg/mL	0.2 µg/mL	MIC (E. cloacae 908RN; E. colacae 908RN, Table 5): 0.2 µg/mL; MIC (E. colacae GN7471): 0.39 µg/mL; MIC (E. cloacae 5D52-2): 0.05 µg/mL; MIC (P. vulgaris GN7919): 0.39 µg/mL; MIC (S. aureus IAA498): 50 µg/mL; MIC (E. cloacae 1Y247): 0.39 µg/mL; MIC (C. freundii 1U692): 0.05 µg/mL; MIC (S. marcescens GN10857): 0.1 µg/mL
Cc1nc2c(C(=O)O)cnn2c(SCC2=C(C(=O)O)N3C(=O)C(NC(=O)C(=NOC(C)(C)C(=O)NNC(=O)c4ccc(O)c(O)c4)c4csc(N)n4)C3SC2)c1C (centres unmarked) [Example 27, 7-{2-[2-Amino-1,3-thiazol-4-yl]-2-[1-(3-(3,4-dihydroxybenzoyl)carbazoyl)-1-methylethoxyimino]acetamide}-3-[(3-carboxy-5,6-dimethylpyrazolo[1,5-a]pyrimidin-7-yl)thiomethyl]-3-cephem-4-carboxylic acid.hydrochloride]	0.2 µg/mL	0.2 µg/mL	< 0.006 µg/mL	0.78 µg/mL	0.78 µg/mL	6.25 µg/mL	< 0.006 µg/mL	0.39 µg/mL	0.012 µg/mL	25 µg/mL	0.1 µg/mL	0.2 µg/mL	0.012 µg/mL	0.05 µg/mL	0.2 µg/mL	0.1 µg/mL	0.39 µg/mL	0.1 µg/mL	0.2 µg/mL	0.78 µg/mL	MIC (E. cloacae 908RN; E. colacae 908RN, Table 5): 0.39 µg/mL; MIC (E. colacae GN7471): 0.78 µg/mL; MIC (E. cloacae 5D52-2): 0.1 µg/mL; MIC (P. vulgaris GN7919): 0.39 µg/mL; MIC (S. aureus IAA498): 50 µg/mL; MIC (E. cloacae 1Y247): 0.78 µg/mL; MIC (C. freundii 1U692): 0.2 µg/mL; MIC (S. marcescens GN10857): 0.1 µg/mL
